Measured values from patent US9670227B2, “Thienopyrimidine derivatives, a process for their preparation and pharmaceutical compositions containing them” (LES LABORATOIRES SERVIER, priority 2013, dated 2017).
Where two headings read alike, the source gives them in different places.

How the values were obtained:
Mcl-1 protein = Mcl-1 protein (UniProtKB primary accession number: Q07820) (Homo sapiens, UniProt Q07820); assay: Inhibition of Mcl-1 by fluorescence polarisation, Method 1; type: binding; conditions: fluorescence polarisation; Method 1, or Method 2; read-out: IC50 (M) Mcl-1 FP
Sequence of Mcl-1 protein (Q07820 whole entry): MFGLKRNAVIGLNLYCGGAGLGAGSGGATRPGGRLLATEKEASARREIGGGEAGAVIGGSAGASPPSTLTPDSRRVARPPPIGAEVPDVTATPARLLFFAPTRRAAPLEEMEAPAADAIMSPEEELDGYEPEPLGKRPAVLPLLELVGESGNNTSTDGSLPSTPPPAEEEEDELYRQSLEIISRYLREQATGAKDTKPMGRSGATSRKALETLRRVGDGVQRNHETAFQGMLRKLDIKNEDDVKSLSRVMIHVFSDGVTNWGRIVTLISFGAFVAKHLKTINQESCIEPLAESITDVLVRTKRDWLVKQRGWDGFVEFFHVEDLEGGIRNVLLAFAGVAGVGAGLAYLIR
Summary of the method: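 Binding was measured as fluorescence polarisation of a fluorescein-labelled ligand (1 nM) displaced from Mcl-1 (5 nM), both final. Compounds ran as 11-point series with final DMSO at 5%.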

[1] = tested on: AMO-1 multiple myeloma cells; assay: Quantification of the cleaved form of PARP in vivo (MSD ELISA, tumour lysates); parameters: species or system mice (SCID strain); conditions: activation factor: cleaved PARP in treated mice / control mice, AMO-1 xenograft in SCID mice, intraveinous or oral routes
Summary of the method: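 SCID mice bearing subcutaneous AMO-1 xenografts (1.10^7 cells) dosed intravenously or orally 12 to 14 days after grafting. Cleaved PARP in tumour lysates measured by MSD ELISA. Reported as activation factor, the ratio of treated to control cleaved PARP.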

[2] = tested on: H929 multiple myeloma tumour line; assay: In vitro cytotoxicity, Microculture Tetrazolium Assay; type: cell-based; conditions: H929 cells, 48 hours exposure, MTT, read-out: IC50 (μM) MTT H929
Method: The cytotoxicity studies were carried out on the H929 multiple myeloma tumour line.
The cells are distributed onto microplates and exposed to the test compounds for 48 hours.

SMILES | IC50 (Mcl-1 protein) [M] | PARP fold [1] [fold] | IC50 ([2]; Homo sapiens, NCI-H929, 48 h) [µM] | IC50 [2] [µM]
Cc1c(-c2c(-c3ccc(F)cc3)sc3ncnc(OC(Cc4ccccc4OCc4ccnc(-c5ccccc5O)n4)C(=O)O)c23)ccc(OCCN2CCN(C)CC2)c1Cl [Example 722, (2R)-2-{[(5Sa)-5-{3-chloro-2-methyl-4-[2-(4-methylpiperazin-1-yl)ethoxy]phenyl}-6-(4-fluorophenyl)thieno[2,3-d]pyrimidin-4-yl]oxy}-3-(2-{[2-(2-hydroxyphenyl)pyrimidin-4-yl]methoxy}phenyl)propanoic acid] | 1.4e-09 | 296.6 | 0.023 | 
Cc1c(-c2c(-c3ccc(F)cc3)sc3ncnc(OC(Cc4ccccc4OCc4ccnc(-c5ccccc5OC(C)C)n4)C(=O)O)c23)ccc(OCCN2CCN(C)CC2)c1Cl [Example 723, (2R)-2-{[(5Sa)-5-{3-chloro-2-methyl-4-[2-(4-methylpiperazin-1-yl)ethoxy]phenyl}-6-(4-fluorophenyl)thieno[2,3-d]pyrimidin-4-yl]oxy}-3-[2-({2-[2-(propan-2-yloxy)phenyl]pyrimidin-4-yl}methoxy)phenyl]propanoic acid] | 1.18e-09 | 191.2 | 0.004 | 
COCCOc1ccccc1-c1nccc(COc2ccccc2CC(Oc2ncnc3sc(-c4ccc(F)cc4)c(-c4ccc(OCCN5CCN(C)CC5)c(Cl)c4C)c23)C(=O)O)n1 [Example 724, (2R)-2-{[(5Sa)-5-{3-chloro-2-methyl-4-[2-(4-methylpiperazin-1-yl)ethoxy]phenyl}-6-(4-fluorophenyl)thieno[2,3-d]pyrimidin-4-yl]oxy}-3-[2-({2-[2-(2-methoxyethoxy)phenyl]pyrimidin-4-yl}methoxy)phenyl]propanoic acid] | 9.48e-10 | 188.9 | 0.002 | 
CCc1ccccc1-c1nccc(COc2ccccc2C[C@@H](Oc2ncnc3sc(-c4ccc(F)cc4)c(-c4ccc(OCCN5CCN(C)CC5)c(Cl)c4C)c23)C(=O)O)n1 [Example 726, (2R)-2-{[(5Sa)-5-{3-chloro-2-methyl-4-[2-(4-methylpiperazin-1-yl)ethoxy]phenyl}-6-(4-fluorophenyl)thieno[2,3-d]pyrimidin-4-yl]oxy}-3-(2-{[2-(2-ethylphenyl)pyrimidin-4-yl]methoxy}phenyl)propanoic acid] | 1.18e-09 | 112.5 |  | 0.011
COc1ccc(-c2nccc(COc3ccccc3CC(Oc3ncnc4sc(-c5ccc(F)cc5)c(-c5ccc(OCCN6CCN(C)CC6)c(Cl)c5C)c34)C(=O)O)n2)c(C(F)(F)F)c1 [Example 729, (2R)-2-{[(5Sa)-5-{3-chloro-2-methyl-4-[2-(4-methylpiperazin-1-yl)ethoxy]phenyl}-6-(4-fluorophenyl)thieno[2,3-d]pyrimidin-4-yl]oxy}-3-[2-({2-[4-methoxy-2-(trifluoromethyl)phenyl]pyrimidin-4-yl}methoxy)phenyl]propanoic acid] | 1.24e-09 | 221 | 0.009 | 
Cc1cc(-c2nccc(COc3ccccc3CC(Oc3ncnc4sc(-c5ccc(F)cc5)c(-c5ccc(OCCN6CCN(C)CC6)c(Cl)c5C)c34)C(=O)O)n2)c(C)cn1 [Example 731, (2R)-2-{[(5Sa)-5-{3-chloro-2-methyl-4-[2-(4-methylpiperazin-1-yl)ethoxy]phenyl}-6-(4-fluorophenyl)thieno[2,3-d]pyrimidin-4-yl]oxy}-3-(2-{[2-(2,5-dimethylpyridin-4-yl)pyrimidin-4-yl]methoxy}phenyl)propanoic acid] | 9.48e-10 | 175.5 | 0.005 | 
CCc1c(-c2c(-c3ccc(F)cc3)sc3ncnc(O[C@H](Cc4ccccc4OCc4ccnc(-c5ccccc5OC)n4)C(=O)O)c23)ccc(OCCN2CCN(C)CC2)c1Cl [Example 741, (2R)-2-{[(5Sa)-5-{3-chloro-2-ethyl-4-[2-(4-methylpiperazin-1-yl)ethoxy]phenyl}-6-(4-fluorophenyl)thieno[2,3-d]pyrimidin-4-yl]oxy}-3-(2-{[2-(2-methoxyphenyl)pyrimidin-4-yl]methoxy}phenyl)propanoic acid] | 9.48e-10 | 244 |  | 0.002
COc1ccccc1-c1nccc(COc2ccccc2CC(Oc2ncnc3sc(-c4ccc(F)cc4)c(-c4ccc(OCCN5CCN(C)CC5)c(Cl)c4Br)c23)C(=O)O)n1 [Example 742, (2R)-2-{[(5Sa)-5-{2-bromo-3-chloro-4-[2-(4-methylpiperazin-1-yl)ethoxy]phenyl}-6-(4-fluorophenyl)thieno[2,3-d]pyrimidin-4-yl]oxy}-3-(2-{[2-(2-methoxyphenyl)pyrimidin-4-yl]methoxy}phenyl)propanoic acid] | 9.48e-10 | 267.2 | 0.002 | 
COc1ccccc1-c1nccc(COc2ccccc2CC(Oc2ncnc3sc(-c4ccc(F)cc4)c(-c4ccc(OCCN5CCN(C)CC5)c(Cl)c4Cl)c23)C(=O)O)n1 [Example 743, (2R)-2-{[(5Sa)-5-{2,3-dichloro-4-[2-(4-methylpiperazin-1-yl)ethoxy]phenyl}-6-(4-fluorophenyl)thieno[2,3-d]pyrimidin-4-yl]oxy}-3-(2-{[2-(2-methoxyphenyl)pyrimidin-4-yl]methoxy}phenyl)propanoic acid] | 9.48e-10 | 147.3 | 0.005 | 
Cc1c(-c2c(-c3ccc(F)cc3)sc3ncnc(OC(Cc4ccccc4OCc4ccnn4C(C)(C)C)C(=O)O)c23)ccc(OCCN(C)C)c1Cl [Example 750, (2R)-3-{2-[(1-tert-butyl-1H-pyrazol-5-yl)methoxy]phenyl}-2-{[(5Sa)-5-{3-chloro-4-[2-(dimethylamino)ethoxy]-2-methylphenyl}-6-(4-fluorophenyl)thieno[2,3-d]pyrimidin-4-yl]oxy}propanoic acid] | 1.33e-09 | 181.6 | 0.035 | 
Cc1c(-c2c(-c3ccc(F)cc3)sc3ncnc(OC(Cc4ccccc4OCc4ccnc(-c5ccccc5F)n4)C(=O)O)c23)ccc(OCCN(C)C)c1Cl [Example 757, (2R)-2-{[(5Sa)-5-{3-chloro-4-[2-(dimethylamino)ethoxy]-2-methylphenyl}-6-(4-fluorophenyl)thieno[2,3-d]pyrimidin-4-yl]oxy}-3-(2-{[2-(2-fluorophenyl)pyrimidin-4-yl]methoxy}phenyl)propanoic acid] | 3.95e-09 | 135.6 | 0.013 | 
COc1ccccc1-c1nccc(COc2ccccc2CC(Oc2ncnc3sc(-c4ccc(OCc5ccccc5)cc4)c(-c4ccc(OCCN5CCN(C)CC5)c(Cl)c4C)c23)C(=O)O)n1 [Example 762, (2R)-2-[(6-[4-(benzyloxy)phenyl]-(5Sa)-5-{3-chloro-2-methyl-4-[2-(4-methylpiperazin-1-yl)ethoxy]phenyl}thieno[2,3-d]pyrimidin-4-yl)oxy]-3-(2-{[2-(2-methoxyphenyl)pyrimidin-4-yl]methoxy}phenyl)propanoic acid] | 1.88e-09 | 136.9 | 0.014 | 
COc1ccccc1-c1nccc(COc2ccccc2CC(Oc2ncnc3sc(-c4ccc(OCc5ccncc5)cc4)c(-c4ccc(OCCN5CCN(C)CC5)c(Cl)c4C)c23)C(=O)O)n1 [Example 774, (2R)-2-[((5Sa)-5-{3-chloro-2-methyl-4-[2-(4-methylpiperazin-1-yl)ethoxy]phenyl}-6-[4-(pyridin-4-ylmethoxy)phenyl]thieno[2,3-d]pyrimidin-4-yl)oxy]-3-(2-{[2-(2-methoxyphenyl)pyrimidin-4-yl]methoxy}phenyl)propanoic acid] | 9.48e-10 | 104.8 | 0.009 | 
COc1ccccc1-c1nccc(COc2ccccc2CC(Oc2ncnc3sc(C#CCCc4ccccc4)c(-c4ccc(OCCN5CCN(C)CC5)c(Cl)c4C)c23)C(=O)O)n1 [Example 781, (2R)-2-{[(5Sa)-5-{3-chloro-2-methyl-4-[2-(4-methylpiperazin-1-yl)ethoxy]phenyl}-6-(4-phenylbut-1-yn-1-yl)thieno[2,3-d]pyrimidin-4-yl]oxy}-3-(2-{[2-(2-methoxyphenyl)pyrimidin-4-yl]methoxy}phenyl)propanoic acid] | 9.48e-10 | 113.3 | 0.033 | 
COC(=O)C(Cc1ccccc1OCc1ccnc(-c2ccccc2OC)n1)Oc1ncnc2sc(-c3ccc(F)cc3)c(-c3ccc(OCCN4CCN(C)CC4)c(Cl)c3C)c12 [Example 787, methyl (2R)-2-{[(5Sa)-5-{3-chloro-2-methyl-4-[2-(4-methylpiperazin-1-yl)ethoxy]phenyl}-6-(4-fluorophenyl)thieno[2,3-d]pyrimidin-4-yl]oxy}-3-(2-{[2-(2-methoxyphenyl)pyrimidin-4-yl]methoxy}phenyl)propanoate] | 4.71e-07 | 131.5 | 0.245 | 
COc1ccccc1-c1nccc(COc2ccccc2CC(Oc2ncnc3sc(-c4ccc(F)cc4)c(-c4ccc(OCCN5CCN(C)CC5)c(Cl)c4C)c23)C(=O)OC(C)C)n1 [Example 788, propan-2-yl (2R)-2-{[(5Sa)-5-{3-chloro-2-methyl-4-[2-(4-methylpiperazin-1-yl)ethoxy]phenyl}-6-(4-fluorophenyl)thieno[2,3-d]pyrimidin-4-yl]oxy}-3-(2-{[2-(2-methoxyphenyl)pyrimidin-4-yl]methoxy}phenyl)propanoate] | 6.74e-07 | 144.8 | 0.494 | 
